Laboratory results reported in patent EP2144607B1, “COMPOSITIONS FOR CONTRIBUTING TO THE TREATMENT OF CANCERS” (Spectrum Pharmaceuticals, Inc., priority 2007, dated 2008).

System: SK-OV3 cells
Assay: preclinical efficacy study on the human ovarian tumor model in mice (tumor volume)
Type: in vivo
Conditions: via tail vein once every three days, 4 doses, measured every third day through the 22nd day
Procedure: A preclinical efficacy study was conducted on the human ovarian tumor model in mice. The tumor cells used were SK-OV3 cells purchased from ATCC. The mice were 4-6 week old Athymic (nu+/nu+) female mice. The IRL-1620 was intravenously-infused slowly (over 30 seconds).
A solid tumor was induced in each animal using 3 million viable SK-OV3 cells suspended in 200 µl of PBS per animal. After 10 days, when established tumors of 100 mm^3 in diameter were detectable, the mice randomly were divided into six groups of 6 animals per group with each group receiving different treatments. The treatment regimens were administered via the tail vein every third day for a total of 4 doses. […]
The effect of these treatments on the tumor size was measured using a digital caliper for a total of 12 days after drug administration. The mice were monitored and weighed on every third day. […] Progression, stasis, partial regression or complete regression of tumor growth were measured by tumor load measurements with calipers and was calculated using the following formula: (3.14/6) x larger diameter x smaller diameter.

SMILES | tumor volume (Figure 1, cisplatin 2.5 mg/kg with saline or IRL-1620 3 nmol/kg) | tumor volume (Figure 3, cyclophosphamide 75 mg/kg with saline or IRL-1620 3 nmol/kg)
N.N.[Cl][Pt][Cl] [saline/cisplatin, cisplatin] | significant reduction in tumor volume | 
O=P1(N(CCCl)CCCl)NCCCO1 (centres unmarked) [saline/cyclophosphamide, cyclophosphamide] |  | significant reduction in tumor volume
